Laboratory results as given in US9701709B2 (REATA PHARMACEUTICALS, INC., priority 2012, dated 2017).
Like-named read-outs stand apart in the source and are kept apart here.

What was measured:
[1] = Metabolism in rodent (mouse, rat) liver microsomes; type: in vitro ADME, mice, rats; conditions: 60-min incubation, NADPH and UGT
[2] = test system: acute radiation dermatitis; assay: Acute radiation dermatitis in BALB/c mice; type: in vivo, mouse
[3] = Plasma protein binding (ultracentrifugation), mouse
[4] = Metabolism in human liver microsomes; type: in vitro ADME; conditions: 60-min incubation, NADPH and UGT
[5] = test system: NF-κB in NIH3T3/NF-κB-luc cell line; assay: NF-κB luciferase reporter in NIH3T3/NF-κB-luc; type: cell-based; conditions: Mus musculus
From the text: (b) TNF-α-induced activation of an NF-κB luciferase reporter in the mouse NIH3T3 cell line.
NF-κB is a transcription factor that plays a central role in the regulation of many immune and inflammatory responses. […] The NIH3T3/NF-κB-luc cell line maintains a chromosomal integration of a Firefly luciferase reporter construct regulated by eight copies of the NF-κB response element. The effects of these compounds can be quantified by measuring the value of the NF-κB IC50.

CYP2C9 = CYP2C9 (Homo sapiens, UniProt P11712); assay: CYP450 inhibition in pooled human liver microsomes, CYP2C9; type: in vitro ADME; conditions: highest concentration tested (3 μM)
From the text: (§1) In addition, there was little or no evidence of metabolism-dependent inhibition of any of the enzymes tested.

[6] = test system: Nrf2 target genes (NQO1, HMOX1, GCLM, TXNRD1) in HFL1 lung fibroblasts; assay: Nrf2 target gene mRNA (qPCR) in HFL1; type: cell-based, human; conditions: HFL1, 18 h
Procedure: HFL1 cells were cultured in F-12K media supplemented with 10% fetal bovine serum and 1% penicillin-streptomycin. BEAS-2B cells were cultured in DMEM/F-12 media supplemented with 10% fetal bovine serum and 1% penicillin-streptomycin. […] Each well received the same amount of vehicle. Following treatment, media was removed and cells were harvested using RLT buffer (Qiagen). Lysates were homogenized using QIAShredder columns (Qiagen, Catalog #79654) and RNA was isolated using RNeasy Mini kits (Qiagen, Catalog #74104). For reverse transcription, RNA (1 μg) was combined with Oligo(dT)12-18 primer and H2O in a final volume of 23.25 μL. The mixture was heated to 70° C. for 10 min and then placed on ice. A master mix containing 8 μL 5×1st strand buffer, 2 μL 1 mg/ml BSA, 2 μL 20 mM DTT, 4 μL 5 mM dNTP mix, 0.25 μL RNaseOUTTM and 0.5 μL […]® II reverse transcriptase was added to the RNA mixture and incubated at 42° C. for 1 h. The reaction was inactivated by heating to 70° C. for 10 min. The reaction mixture was diluted 1:3 with H2O prior to use in qPCR. […] The relative abundance of each Nrf2 target gene was determined using the comparative CT method (ΔΔCT). […]

CYP3A4/5 = assay: CYP450 inhibition in pooled human liver microsomes, CYP3A4/5; type: in vitro ADME; conditions: read-out: Ki, direct inhibition of CYP3A4/5
From the text: as §1

[7] = test system: pyruvate in C2Cl2 muscle cells; assay: Pyruvate levels in C2Cl2 myotubes; type: cell-based, rodent; conditions: differentiated C2Cl2 myotubes; 250 nM or 500 nM, 18 h
Procedure: Following drug treatment, media was removed and cells were washed with PBS. Cells were lysed in Pyruvate Assay Buffer (Pyruvate Assay Kit, BioVision, Catalog # K609-100). Cell lysates were centrifuged (10 min at 14,000 rpm, 4° C.) and pyruvate levels were measured in the supernatant.

CYP2C9, sequence (P11712 whole entry): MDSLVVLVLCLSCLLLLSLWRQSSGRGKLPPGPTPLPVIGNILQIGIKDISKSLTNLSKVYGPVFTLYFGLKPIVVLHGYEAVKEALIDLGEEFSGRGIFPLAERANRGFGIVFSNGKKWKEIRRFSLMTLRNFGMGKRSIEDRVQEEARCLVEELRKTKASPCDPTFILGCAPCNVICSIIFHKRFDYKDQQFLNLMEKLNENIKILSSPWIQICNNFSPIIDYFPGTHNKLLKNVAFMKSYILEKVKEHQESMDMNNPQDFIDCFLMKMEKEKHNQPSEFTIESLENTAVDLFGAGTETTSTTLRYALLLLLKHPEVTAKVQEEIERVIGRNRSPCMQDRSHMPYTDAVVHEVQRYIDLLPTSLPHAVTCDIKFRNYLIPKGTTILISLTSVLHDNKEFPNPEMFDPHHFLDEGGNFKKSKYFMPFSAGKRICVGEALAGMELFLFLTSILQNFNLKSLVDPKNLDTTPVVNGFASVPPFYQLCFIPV

Question: Which results are given for `CC1(C)CC[C@]2(NC(=O)C(C)(F)F)CC[C@]3(C)[C@H](C(=O)C=C4[C@@]5(C)C=C(C#N)C(=O)C(C)(C)[C@@H]5CC[C@]43C)[C@@H]2C1` [RTA 408, N-((4aS,6aR,6bS,8aR,12aS,14aR,14bS)-11-cyano-2,2,6a,6b,9,9,12a-heptamethyl-10,14-dioxo-1,2,3,4,4a,5,6,6a,6b,7,8,8a,9,10,12a,14,14a,14b-octadecahydropicen-4a-yl)-2,2-difluoropropanamide]?
Answer: Parent molecule remaining [1]: > 65%; % animal-days >=2 ([2]; oral 3 mg/kg): 32.5%; % animal-days >=3 ([2]; oral 3 mg/kg): 1.3%; % mice scored above 3 in clinical dermatitis exam, Day 16 ([2]; oral 3 mg/kg): 10%; % mice scored above 3 in clinical dermatitis exam, Day 18 ([2]; oral 3 mg/kg): 10%; % mice scored above 3 in clinical dermatitis exam, Day 20 ([2]; oral 3 mg/kg): 0%; % mice scored above 3 in clinical dermatitis exam, Day 22 ([2]; oral 3 mg/kg): 0%; % mice scored above 3 in clinical dermatitis exam, Day 24 ([2]; oral 3 mg/kg): 0%; % mice scored above 3 in clinical dermatitis exam, Day 26 ([2]; oral 3 mg/kg): 0%; % mice scored above 3 in clinical dermatitis exam, Day 28 ([2]; oral 3 mg/kg): 0%; % animal-days >=2 ([2]; oral 10 mg/kg): 33.8%; % animal-days >=3 ([2]; oral 10 mg/kg): 4.1%; % mice scored above 3 in clinical dermatitis exam, Day 16 ([2]; oral 10 mg/kg): 10%; % mice scored above 3 in clinical dermatitis exam, Day 18 ([2]; oral 10 mg/kg): 25%; % mice scored above 3 in clinical dermatitis exam, Day 20 ([2]; oral 10 mg/kg): 30%; % mice scored above 3 in clinical dermatitis exam, Day 22 ([2]; oral 10 mg/kg): 0%; % mice scored above 3 in clinical dermatitis exam, Day 24 ([2]; oral 10 mg/kg): 0%; % mice scored above 3 in clinical dermatitis exam, Day 26 ([2]; oral 10 mg/kg): 0%; % mice scored above 3 in clinical dermatitis exam, Day 28 ([2]; oral 10 mg/kg): 0%; % animal-days >=2 ([2]; oral 30 mg/kg): 28.8%; % animal-days >=3 ([2]; oral 30 mg/kg): 2.5%; % mice scored above 3 in clinical dermatitis exam, Day 16 ([2]; oral 30 mg/kg): 10%; % mice scored above 3 in clinical dermatitis exam, Day 18 ([2]; oral 30 mg/kg): 20%; % mice scored above 3 in clinical dermatitis exam, Day 20 ([2]; oral 30 mg/kg): 10%; % mice scored above 3 in clinical dermatitis exam, Day 22 ([2]; oral 30 mg/kg): 0%; % mice scored above 3 in clinical dermatitis exam, Day 24 ([2]; oral 30 mg/kg): 0%; % mice scored above 3 in clinical dermatitis exam, Day 26 ([2]; oral 30 mg/kg): 0%; % mice scored above 3 in clinical dermatitis exam, Day 28 ([2]; oral 30 mg/kg): 0%; % animal-days >=2 ([2]; topical 0.01% in sesame oil): 14.4%; % animal-days >=3 ([2]; topical 0.01% in sesame oil): 0.0%; % mice scored above 2 in clinical dermatitis exam, Day 12 ([2]; topical 0.01% in sesame oil): 0.0%; % mice scored above 2 in clinical dermatitis exam, Day 14 ([2]; topical 0.01% in sesame oil): 0.0%; % mice scored above 2 in clinical dermatitis exam, Day 16 ([2]; topical 0.01% in sesame oil): 20.0%; % mice scored above 2 in clinical dermatitis exam, Day 18 ([2]; topical 0.01% in sesame oil): 50.0%; % mice scored above 2 in clinical dermatitis exam, Day 20 ([2]; topical 0.01% in sesame oil): 10.0%; % mice scored above 2 in clinical dermatitis exam, Day 22 ([2]; topical 0.01% in sesame oil): 40.0%; % mice scored above 2 in clinical dermatitis exam, Day 24 ([2]; topical 0.01% in sesame oil): 40.0%; % mice scored above 2 in clinical dermatitis exam, Day 26 ([2]; topical 0.01% in sesame oil): 40.0%; % mice scored above 2 in clinical dermatitis exam, Day 28 ([2]; topical 0.01% in sesame oil): 20.0%; % mice scored above 2 in clinical dermatitis exam, Day 30 ([2]; topical 0.01% in sesame oil): 10.0%; % animal-days >=2 ([2]; topical 0.1% in sesame oil): 16.3%; % animal-days >=3 ([2]; topical 0.1% in sesame oil): 0.0%; % mice scored above 2 in clinical dermatitis exam, Day 12 ([2]; topical 0.1% in sesame oil): 7.1%; % mice scored above 2 in clinical dermatitis exam, Day 14 ([2]; topical 0.1% in sesame oil): 10.0%; % mice scored above 2 in clinical dermatitis exam, Day 16 ([2]; topical 0.1% in sesame oil): 20.0%; % mice scored above 2 in clinical dermatitis exam, Day 18 ([2]; topical 0.1% in sesame oil): 80.0%; % mice scored above 2 in clinical dermatitis exam, Day 20 ([2]; topical 0.1% in sesame oil): 60.0%; % mice scored above 2 in clinical dermatitis exam, Day 22 ([2]; topical 0.1% in sesame oil): 40.0%; % mice scored above 2 in clinical dermatitis exam, Day 24 ([2]; topical 0.1% in sesame oil): 30.0%; % mice scored above 2 in clinical dermatitis exam, Day 26 ([2]; topical 0.1% in sesame oil): 10.0%; % mice scored above 2 in clinical dermatitis exam, Day 28 ([2]; topical 0.1% in sesame oil): 0.0%; % mice scored above 2 in clinical dermatitis exam, Day 30 ([2]; topical 0.1% in sesame oil): 0.0%; % animal-days >=2 ([2]; topical 1.0% in sesame oil): 9.7%; % animal-days >=3 ([2]; topical 1.0% in sesame oil): 0.0%; % mice scored above 2 in clinical dermatitis exam, Day 12 ([2]; topical 1.0% in sesame oil): 10.7%; % mice scored above 2 in clinical dermatitis exam, Day 14 ([2]; topical 1.0% in sesame oil): 20.0%; % mice scored above 2 in clinical dermatitis exam, Day 16 ([2]; topical 1.0% in sesame oil): 10.0%; % mice scored above 2 in clinical dermatitis exam, Day 18 ([2]; topical 1.0% in sesame oil): 70.0%; % mice scored above 2 in clinical dermatitis exam, Day 20 ([2]; topical 1.0% in sesame oil): 30.0%; % mice scored above 2 in clinical dermatitis exam, Day 22 ([2]; topical 1.0% in sesame oil): 10.0%; % mice scored above 2 in clinical dermatitis exam, Day 24 ([2]; topical 1.0% in sesame oil): 0.0%; % mice scored above 2 in clinical dermatitis exam, Day 26 ([2]; topical 1.0% in sesame oil): 0.0%; % mice scored above 2 in clinical dermatitis exam, Day 28 ([2]; topical 1.0% in sesame oil): 0.0%; % mice scored above 2 in clinical dermatitis exam, Day 30 ([2]; topical 1.0% in sesame oil): 0.0%; fraction unbound [3]: 0.07; Parent molecule remaining [4]: < 10%; IC50 ([5]; not viability normalized, read-out: NIH3T3/NF-κB IC50): 1.2 µM; IC50 ([5]; viability normalized, read-out: NIH3T3/NF-κB IC50, normalized for viability): 1.4 µM; inhibition at 3 µM (CYP2C9): < 50%; Lowest concentration at which induction of Nrf2 target genes was evident [6]: 15.6 nM; Ki (CYP3A4/5): ~0.5 µM; Intracellular pyruvate levels [7]: increased intracellular pyruvate levels in a dose-dependent manner
